The conditions of data set [1]: 101 kPa, Liquid, Vibrating tube method.
Data set [2] can be described thus: xn = mol fraction of the nth substance listed. Particulars: 283.15 K; 101 kPa; Liquid; Vibrating tube method; x2 = 0.

Numbers after ± are expanded uncertainties.

What is called mass density is the mass of a sample divided by its volume. On to `CCCOCC(C)O` (configuration not stated) [1-propoxy-2-propanol], for which the mass density in data set [1] (283.15 K) stood at 894.462 ± 0.23 kg/m3; in data set [1] (288.15 K), 889.963 ± 0.23 kg/m3; in data set [1] (293.15 K), 885.456 ± 0.23 kg/m3; in data set [1] (298.15 K), 880.837 ± 0.23 kg/m3; in data set [1] (303.15 K), 876.279 ± 0.23 kg/m3.

With `O` [water], in data set [1] (283.15 K), the mass density came out at 999.699 ± 0.05 kg/m3.

On to `O` [water] + CCCOCC(C)O, for which, in data set [2], the mass density came out at 999.699 ± 0.05 kg/m3.

Values taken from the NIST ThermoML archive (doi:10.1016/j.jct.2009.06.016).
